Data reported in patent US7314864B1, “Humanin, a polypeptide suppressing neuronal death” (Keio University, priority 1999, dated 2008).
“Also recorded” adds a separate entry of the source. No end group written: not given here.

Tests used:
[1] = system: F11 cells transfected with V642I APP cDNA; test: V642I APP-induced F11 cell death, trypan blue exclusion assay; format: cell-based; conditions: for cell mortality (%): V642I APP cDNA, treated with 10 μM sHN polypeptides, 72 hours, mean ±S.D.
Experimental: (§1) F11 cells (Platika, D. et al. (1985) Proc. Natl. Acad. Sci. U.S.A. 82, 3499-3503; Yamatsuji, T. et al. (1996) Science 272, 1349-1352) were cultured in HamF-12 media containing 18% fetal bovine serum (FBS) and antibiotics. 7×10^4/well of F11 cells were seeded into a 6-well plate; cultured in HamF-12 containing 18% FBS for 12 to 16 hours; transfected 3 hours with plasmids encoding FAD genes and plasmids encoding HN (pHN, and such) by lipofection in the absence of serum (1 μg of FAD cDNA expression plasmid, 1 μg of HN cDNA expression plasmid, 4 μl of LipofectAMINE, 8 μl of Plus reagent); and then, were cultured for 2 hours in HamF-12 media containing 18% FBS. Then, culture media were exchanged with HamF-12 media containing 10% FBS; and the cells were cultured for additional 67 hours. 72 hours after transfection, cell death was measured by trypan blue exclusion assay. Experiments using synthetic HN polypeptides were conducted as follows: F11 cells (at 7×10^4/well in a 6-well plate) were transfected 3 hours with FAD genes in the absence of serum, as mentioned above; after cultivation for 2 hours in HamF-12 media containing 18% FBS, the cells were cultured for 67 hours in HamF-12 media containing 10% FBS with various concentrations of HN polypeptides; and cell death was measured by trypan blue exclusion assay. ALS-associated mutant cDNAs of SOD1 were also similarly transfected, and examined for their neurotoxicity.
(§2) Trypan blue exclusion assay was performed as follows. Without prewashing, the cells were suspended with gentle pipetting into a serum-free media. 50 μl of 0.4% trypan blue solution (Sigma, Cat. #T-8154) were added (final concentration of 0.08%) to 200 μl cell suspension, and the suspension was mixed at room temperature. Within 3 minutes of the trypan blue solution addition, stained cells were counted. Cell mortality was determined [100-cell survival rate (%)] based on the stained cell count. LDH assay was performed using a kit (LDH-Cytotoxic Test; Wako Pure Chemical Industries, Cat. #299-50601) by sampling 6 μl of media in which neurons were cultured. Calcein staining was performed as described in literature (Bozyczko-Coyne, D. et al. (1993) Journal of Neuroscience Methods 50, 205-216). Specifically, 6 μM Calcein-AM (3′, 6′-Di-(O-acetyl)-2′-7′-bis[N,N-bis(carboxymethyl)aminomethyl]fluorescein, tetraacetoxymethyl ester; Dojindo, Cat. #349-07201) was added to the neurons; and 30 minutes or longer after Calcein-AM treatment, fluorescence (ex=490 nm, em=515 nm) was observed by fluorescence microscopy, and measured by a spectrometer. Specific fluorescence was calculated by subtracting basal fluorescence from total fluorescence. Basal fluorescence was assigned to be the value calculated from linear trypan blue positivity-fluorescence intensity relationship, corresponding to 100% trypan blue positivity.

[2] = system: F11 cells transfected with FAD genes (V642I APP, NL-APP, M146L PS-1, N141I PS-2); test: FAD gene-induced F11 cell death, trypan blue exclusion assay; format: cell-based, rat/mouse hybrid
Experimental: as §1, §2

[3] = system: primary cultured cortical neurons treated with Aβ1-43; test: Aβ1-43-induced cell death of primary cultured cortical neurons, trypan blue exclusion assay; format: cell-based; conditions: for effect on Aβ1-43-induced cell death: 25 μM Aβ1-43, confirmed by LDH release and Calcein staining
Experimental: Primary culture of mouse cortical neurons was performed in poly-D-lysine-coated 24-well plates (Sumitomo Bakelite) in the absence of serum and in the presence of N2 supplement, as described in literature (Ecksioglu, Y. Z. et al. (1994) Brain Res. 644, 282-90). The purity of neurons prepared according to the method was >98%. The prepared neurons (1.25×10^5/well, 250 μl media/well) were preincubated in the absence or presence of 10 nM or 10 μM sHN polypeptides for 16 hours; and were treated with 25 μM Aβ1-43 in the absence or presence of sHN polypeptides at the same concentrations for 24 to 72 hours. Since primary cultured neurons are damaged even by temporary dryness during medium exchange, treatment of the cells by Aβ1-43 was performed as follows. First, half of the volume of the old medium (125 μl) was discarded. Then, 125 μl of pre-warmed fresh medium containing 50 μM Aβ1-43 and sHN with a concentration indicated above were added to the culture.
as §2

[4] = system: primary cultured cortical neurons treated with Aβ1-43; test: Aβ1-43-induced cell damage of primary cultured cortical neurons, LDH release; format: cell-based, mouse; conditions: 25 μM Aβ1-43; 10 μM polypeptide
Experimental: Primary culture of mouse cortical neurons was performed in poly-D-lysine-coated 24-well plates (Sumitomo Bakelite) in the absence of serum and in the presence of N2 supplement, as described in literature (Ecksioglu, Y. Z. et al. (1994) Brain Res. 644, 282-90). The purity of neurons prepared according to the method was >98%. The prepared neurons (1.25×10^5/well, 250 μl media/well) were preincubated in the absence or presence of 10 nM or 10 μM sHN polypeptides for 16 hours; and were treated with 25 μM Aβ1-43 in the absence or presence of sHN polypeptides at the same concentrations for 24 to 72 hours. […]
(§3) Trypan blue exclusion assay was performed as follows. […] Within 3 minutes of the trypan blue solution addition, stained cells were counted. Cell mortality was determined [100-cell survival rate (%)] based on the stained cell count. […] Specifically, 6 μM Calcein-AM (3′, 6′-Di-(O-acetyl)-2′-7′-bis[N,N-bis(carboxymethyl)aminomethyl]fluorescein, tetraacetoxymethyl ester; Dojindo, Cat. #349-07201) was added to the neurons; and 30 minutes or longer after Calcein-AM treatment, fluorescence (ex=490 nm, em=515 nm) was observed by fluorescence microscopy, and measured by a spectrometer. Specific fluorescence was calculated by subtracting basal fluorescence from total fluorescence. […]

[5] = system: primary cultured neurons treated with etoposide; test: Etoposide toxicity on primary cultured neurons; format: cell-based, mouse; conditions: 20 μM etoposide; 10 μM polypeptide
Experimental: 25 μM Aβ1-43 was added to primary cultured cortical neurons in the presence (at indicated concentrations) or absence of sHN, sHNG, or sHNA. Addition of HN polypeptides was performed similarly to that described in FIG. 14. 72 hours after the initiation of Aβ treatment, cell death was measured by trypan blue exclusion assay. Primary cultured neurons treated similarly for 72 hours with 20 μM etoposide in the presence or absence of 10 μM sHN or HN derivatives were used as the positive controls in these experiments. Similar experiments were performed at least three times, and reproducible results were obtained. Mean ±S.D. values of three independent experiments are indicated in the graphs. […]
as §3

[6] = system: F11/EcR cells transfected with ecdysone-inducible Q79 plasmid; test: Polyglutamine Q79-induced F11/EcR cell death (ecdysone-inducible), trypan blue exclusion assay; format: cell-based; conditions: 1 μM polypeptide, 72 hours
Experimental: F11/EcR cell experiment using ecdysone was conducted as follows: F11/EcR cells were seeded at 7×10^4/well into a 6-well plate; cultured for 12 to 16 hours in HamF-12 media containing 18% FBS; and were similarly transfected in the absence of serum for 3 hours with 1 μg of ecdysone-inducible plasmid alone, or with 1 μg of HN-encoding plasmid, as mentioned above. After culturing for 12 to 16 hours in HamF-12 media containing 18% FBS, the cells were cultured for 2 hours in HamF-12 media containing 10% FBS, then ecdysone (Ponasterone) was added to the media (final concentration of 40 μM). Cell death was measured 72 hours after ecdysone treatment. Experiments using synthetic HN polypeptides were conducted as follows: cells were similarly transfected for 3 hours with FAD genes in the absence of serum; cultured for 12 to 16 hours in HamF-12 media containing 18% FBS; cultured for 2 hours in HamF-12 media containing 10% FBS and various concentrations of HN polypeptide; and then, 40 μM Ponasterone was added to the media. Cell death was measured by trypan blue exclusion assay after 72 hours from the ecdysone treatment. HD/SCA-associated Q79 cDNAs were also similarly transfected, and the neurotoxicity was tested.
Trypan blue exclusion assay was performed as follows. […] Within 3 minutes of the trypan blue solution addition, stained cells were counted. Cell mortality was determined [100-cell survival rate (%)] based on the stained cell count. […] Specifically, 6 μM Calcein-AM (3′, 6′-Di-(O-acetyl)-2′-7′-bis[N,N-bis(carboxymethyl)aminomethyl]fluorescein, tetraacetoxymethyl ester; Dojindo, Cat. #349-07201) was added to the neurons; and 30 minutes or longer after Calcein-AM treatment, fluorescence (ex=490 nm, em=515 nm) was observed by fluorescence microscopy, and measured by a spectrometer. Specific fluorescence was calculated by subtracting basal fluorescence from total fluorescence. Basal fluorescence was assigned to be the value calculated from linear trypan blue positivity-fluorescence intensity relationship, corresponding to 100% trypan blue positivity.

[7] = system: F11 cells transfected with SOD1 mutants (A4T, G85R, G93A); test: ALS-associated SOD1 mutant-induced F11 cell death, trypan blue exclusion assay; format: cell-based, rat/mouse hybrid; conditions: 100 μM polypeptide
Experimental: as §1, §3

[8] = system: F11/EcR cells transfected with ecdysone-inducible FAD gene plasmid; test: Ecdysone-induced FAD gene expression F11/EcR cell death, trypan blue exclusion assay; format: cell-based; conditions: 1 μM; NL-APP, V642I APP, M146L PS-1, N141I PS-2; ecdysone 72 hours
Experimental: F11/EcR cell experiment using ecdysone was conducted as follows: F11/EcR cells were seeded at 7×10^4/well into a 6-well plate; cultured for 12 to 16 hours in HamF-12 media containing 18% FBS; and were similarly transfected in the absence of serum for 3 hours with 1 μg of ecdysone-inducible plasmid alone, or with 1 μg of HN-encoding plasmid, as mentioned above. After culturing for 12 to 16 hours in HamF-12 media containing 18% FBS, the cells were cultured for 2 hours in HamF-12 media containing 10% FBS, then ecdysone (Ponasterone) was added to the media (final concentration of 40 μM). Cell death was measured 72 hours after ecdysone treatment. […] Cell death was measured by trypan blue exclusion assay after 72 hours from the ecdysone treatment. […]
as §3, with “spectrometer.” for “spectrometer. Specific fluorescence was calculated by subtracting basal fluorescence from total fluorescence.”

Compound: CC[C@H](C)[C@H](NC(=O)[C@H](CCC(=O)O)NC(=O)[C@H](CO)NC(=O)[C@@H](NC(=O)[C@H](CC(C)C)NC(=O)[C@H](CC(C)C)NC(=O)[C@H](CC(C)C)NC(=O)[C@H](CC(C)C)NC(=O)[C@H](CS)NC(=O)[C@H](CO)NC(=O)[C@H](Cc1ccccc1)NC(=O)CNC(=O)[C@H](CCCNC(=N)N)NC(=O)[C@@H]1CCCN1C(=O)[C@H](C)NC(=O)[C@@H](N)CCSC)[C@@H](C)O)C(=O)N[C@@H](CC(=O)O)C(=O)N[C@@H](CC(C)C)C(=O)N1CCC[C@H]1C(=O)N[C@H](C(=O)N[C@@H](CCCCN)C(=O)N[C@@H](CCCNC(=N)N)C(=O)N[C@@H](CCCNC(=N)N)C(=O)N[C@@H](C)C(=O)O)C(C)C [sHN]
- suppression of V642I APP-induced cell death ([1]; 10 nM polypeptide): extremely weak suppression
- suppression of V642I APP-induced cell death ([1]; 10 μM polypeptide): dramatically suppressed
- IC50 ([1]; 72 h): ~100 nM
- cell mortality (%) [1]: 14.4 ± 1.2 %
- concentration blocking neuronal death induced by the FAD genes ([2]; NL-APP, M146L PS-1, N141I PS-2): 1 µM
- extracellular concentration at which neuronal death is suppressed ([2]; chemically synthesized polypeptide): ≥ 10 nM
- concentration of maximal (saturation) suppression of neuronal death ([2]; four types of AD genes, listed as Humanin): about 10 μM
- effect on Aβ1-43-induced cell death ([3]; 10 nM polypeptide): did not show any effect
- effect on Aβ1-43-induced cell death ([3]; 10 μM polypeptide): completely restored to a level observed under basal conditions
- effect on cell damage (LDH released) by Aβ1-43 [4]: completely restored to a level observed under basal conditions
- effect on toxic effect of etoposide [5]: could not prevent
- effect on Q79-induced cell death, synthetic polypeptide [6]: Extensive cell death
- effect on SOD1 mutant-induced cell death, synthetic polypeptide [7]: couldn't be suppressed
- effect on cell death by ecdysone-induced FAD genes, synthetic polypeptide [8]: significant suppressive effect

Compound: AGA-HNG: HNG (S14G HN) mutated at two positions, R4A/F6A (MAPAGASCLLLLTGEIDLPVKRRA; artificially synthesized sequence (AGA-HN))
- concentration showing significant or sufficient neuroprotective action [2]: about 1 nM
- concentration giving complete antagonism/rescue of neuronal death ([2]; all four types of FAD genes): 0.1 nM
- neuroprotective activity relative to HNG ([2]; all types of cell death (FAD genes, Aβ)): higher rescue activity compared to HNG; also recorded: several folds higher
- concentration giving complete rescue of cell death by Aβ ([3]; 25 μM Aβ1-43, 72 hours): 0.3 nM

Compound: ARGFSCLLLLTGEIDLP [SEQ ID NO: 25, ARGFSCLLLLTGEIDLP]
- cell mortality ([3]; 25 μM Aβ1-43, 72 hours, 10 nM polypeptide, mean ±S.D.): 75.3±4.4%

Compound: HN-17: 17 amino acids from Pro3 to Pro19 of Humanin (PRGFSCLLLLTSEIDLP; artificially synthesized sequence (deltaN2 deltaC5-Humanin; HN-17 ))
- antagonizing activity on FAD gene-induced cell death ([2]; 10 μM polypeptide, four FAD genes): sufficient antagonizing activity
- activity to suppress cell death compared to the original HN ([2]; M146L PS-1): slightly lower activity
- concentration showing sufficient protective action ([2]; any of the four FAD genes, dose-response): low μM

Compound: MAPRGFSALLLLTSEIDLPVKRRA [sHNA]
- cell mortality (%) [1]: 52.5 ± 3.0%
- suppression of V642I APP-induced cell death ([1]; concentrations up to 100 μM): did not significantly suppress
- antagonism of cell death by FAD genes ([2]; NL-APP, M146L PS-1, N141I PS-2, up to 100 μM): did not antagonize
- effect on Aβ1-43-induced cell death ([3]; 10 μM polypeptide): did not show any effect
- effect on Q79-induced cell death, synthetic polypeptide [6]: Extensive cell death
- effect on SOD1 mutant-induced cell death, synthetic polypeptide [7]: couldn't be suppressed
